Source: PubChem BioAssay AID1259407 (Chemical Carcinogenesis Research Information System (CCRIS), 2018)
The source made the active and inactive calls. No rule for the calls is given here.

Tested on: CCRIS mutagenicity, Ames/micronucleus/aberration tests
Test: CCRIS mutagenicity studies
[1] = Test System: AMES SALMONELLA TYPHIMURIUM, Strain/Indicator: TA98, Metabolic Activation: NONE, Method: PREINCUBATION
[2] = Test System: AMES SALMONELLA TYPHIMURIUM, Strain/Indicator: TA98, Metabolic Activation: NONE, Method: STANDARD PLATE
[3] = Test System: AMES SALMONELLA TYPHIMURIUM, Strain/Indicator: TA100, Metabolic Activation: NONE, Method: STANDARD PLATE
[4] = Test System: AMES SALMONELLA TYPHIMURIUM, Strain/Indicator: TA100, Metabolic Activation: RAT, LIVER, S-9, PHENOBARBITAL, Method: STANDARD PLATE
[5] = Test System: AMES SALMONELLA TYPHIMURIUM, Strain/Indicator: TA97, Metabolic Activation: NONE, Method: PREINCUBATION

C=C1C[C@@]23CC[C@H]4[C@@](C)(CCC[C@@]4(C)C(=O)O[C@@H]4O[C@H](CO)[C@@H](O)[C@H](O)[C@H]4O)[C@@H]2CC[C@]1(O[C@@H]1O[C@H](CO)[C@@H](O)[C@H](O[C@@H]2O[C@H](CO)[C@@H](O)[C@H](O)[C@H]2O)[C@H]1O[C@@H]1O[C@@H](C)[C@H](O)[C@@H](O)[C@H]1O)C3
mutagenic call (Test System: AMES SALMONELLA TYPHIMURIUM, Strain/Indicator: TM677, Metabolic Activation: RAT, LIVER, S-9, AROCLOR 1254, Method: PREINCUBATION): inactive; negative

Cc1ccc2nc3ccc(C)cc3c(N)c2c1
mutagenic call (Test System: AMES SALMONELLA TYPHIMURIUM, Strain/Indicator: TA1537, Metabolic Activation: NONE, Method: PREINCUBATION): active; positive

COc1cccc2c1C(=O)c1c(O)c3c(c(O)c1C2=O)C[C@@](O)(C(=O)CO)C[C@@H]3O[C@H]1C[C@H](N)[C@H](OC)[C@H](C)O1
mutagenic call (Test System: AMES SALMONELLA TYPHIMURIUM, Strain/Indicator: GW257, Metabolic Activation: NONE, Method: STANDARD PLATE): active; positive | mutagenic call (Test System: AMES SALMONELLA TYPHIMURIUM, Strain/Indicator: TA97, Metabolic Activation: NONE, Method: STANDARD PLATE): active; positive | mutagenic call [1]: active; positive | mutagenic call [2]: active; positive | mutagenic call [3]: active; positive | mutagenic call (Test System: AMES SALMONELLA TYPHIMURIUM, Strain/Indicator: TA104, Metabolic Activation: NONE, Method: STANDARD PLATE): active; positive | mutagenic call (Test System: AMES SALMONELLA TYPHIMURIUM, Strain/Indicator: TA1538, Metabolic Activation: NONE, Method: STANDARD PLATE): active; positive | mutagenic call (Test System: AMES SALMONELLA TYPHIMURIUM, Strain/Indicator: TA2637, Metabolic Activation: NONE, Method: STANDARD PLATE): active; positive

COc1cccc2c1[C@H](CO)N1[C@@H](C#N)[C@@H]3C[C@@H](C(=O)O)[C@H]([C@@H]1C2)N3C
mutagenic call (Test System: Mouse lymphoma, Strain/Indicator: L5178Y (tk+/tk-), Metabolic Activation: None, Method: Suspension/plate): active; positive | mutagenic call (Test System: Mouse lymphoma, Strain/Indicator: L5178Y (tk+/tk-), Metabolic Activation: Rat, Liver, S-9, Aroclor 1254, Method: Suspension/plate): active; positive

O=c1c2c(O)cccc2oc2c3c(cc(O)c12)O[C@H]1OCC[C@@H]31
mutagenic call (Test System: AMES SALMONELLA TYPHIMURIUM, Strain/Indicator: TA98, Metabolic Activation: RAT, LIVER, S-9, PHENOBARBITAL, Method: STANDARD PLATE): inactive; negative | mutagenic call [4]: inactive; negative

CC(=C/C=C/C(C)=C/C=C/C=C(C)/C=C/C=C(C)/C=C/C(=O)O)/C=C/C(=O)O
mutagenic call [5]: inactive; negative | mutagenic call (Test System: AMES SALMONELLA TYPHIMURIUM, Strain/Indicator: TA97, Metabolic Activation: S-9, Method: PREINCUBATION): inactive; negative | mutagenic call (Test System: AMES SALMONELLA TYPHIMURIUM, Strain/Indicator: TA102, Metabolic Activation: NONE, Method: PREINCUBATION): inactive; negative | mutagenic call (Test System: AMES SALMONELLA TYPHIMURIUM, Strain/Indicator: TA102, Metabolic Activation: S-9, Method: PREINCUBATION): inactive; negative

CCc1c2ccccc2c(CC)c2c1ccc1ccccc12
mutagenic call (Test System: AMES SALMONELLA TYPHIMURIUM, Strain/Indicator: TA98, Method: STANDARD PLATE): inactive; negative | mutagenic call [4]: inactive; negative | mutagenic call (Test System: AMES SALMONELLA TYPHIMURIUM, Strain/Indicator: TA100, Method: STANDARD PLATE): inactive; negative

O=C1C=CC(=O)C1(Cl)Cl
mutagenic call [3]: active; positive

CC12CCC(CC1)C(C)(C)O2
mutagenic call (End Point: IN VITRO CHROMOSOMAL ABERRATIONS, Test System: CHINESE HAMSTER OVARY CELLS, Metabolic Activation: NONE): inactive; negative; precipitation occurred at 663 ug/ml | mutagenic call (End Point: IN VITRO CHROMOSOMAL ABERRATIONS, Test System: CHINESE HAMSTER OVARY CELLS, Metabolic Activation: RAT, LIVER, S-9, AROCLOR 1254): inactive; negative; precipitation occurred at all doses | mutagenic call (Test System: AMES SALMONELLA TYPHIMURIUM, Strain/Indicator: TA97A, Metabolic Activation: NONE, Method: STANDARD PLATE): inactive; negative | mutagenic call (Test System: AMES SALMONELLA TYPHIMURIUM, Strain/Indicator: TA97A, Metabolic Activation: RAT LIVER S-9, AROCLOR 1254, Method: STANDARD PLATE): inactive; negative | mutagenic call [2]: inactive; negative | mutagenic call (Test System: AMES SALMONELLA TYPHIMURIUM, Strain/Indicator: TA98, Metabolic Activation: RAT LIVER S-9, AROCLOR 1254, Method: STANDARD PLATE): inactive; negative | mutagenic call [3]: inactive; negative | mutagenic call (Test System: AMES SALMONELLA TYPHIMURIUM, Strain/Indicator: TA100, Metabolic Activation: RAT LIVER S-9, AROCLOR 1254, Method: STANDARD PLATE): inactive; negative | mutagenic call (Test System: AMES SALMONELLA TYPHIMURIUM, Strain/Indicator: TA102, Metabolic Activation: NONE, Method: STANDARD PLATE): inactive; negative | mutagenic call (Test System: AMES SALMONELLA TYPHIMURIUM, Strain/Indicator: TA102, Metabolic Activation: RAT LIVER S-9, AROCLOR 1254, Method: STANDARD PLATE): inactive; negative | mutagenic call (Test System: E. coli, Strain/Indicator: WP2 IC185 trpE65, Metabolic Activation: None, Method: Plate incorporation): inactive; negative | mutagenic call (Test System: E. coli, Strain/Indicator: WP2 IC202 trpE65 oxyR/pKM101, Metabolic Activation: None, Method: Plate incorporation): inactive; negative

Cc1ccc(N)c(C)c1
mutagenic call (End Point: IN VITRO CHROMOSOMAL ABERRATIONS, Test System: CHL CELLS, Metabolic Activation: RAT, LIVER, S-9, SODIUM PHENOBARBITAL AND 5,6-BENZOFLAVONE): active; positive (structural and ploidy changes) | mutagenic call (Test System: AMES SALMONELLA TYPHIMURIUM, Strain/Indicator: TA97, Metabolic Activation: HAMSTER, LIVER, S-9, AROCLOR 1254 (10%), Method: PREINCUBATION): active; positive | mutagenic call [5]: inactive; negative | mutagenic call (Test System: AMES SALMONELLA TYPHIMURIUM, Strain/Indicator: TA97, Metabolic Activation: RAT, LIVER, S-9, AROCLOR 1254 (10%), Method: PREINCUBATION): inactive; negative | mutagenic call (Test System: AMES SALMONELLA TYPHIMURIUM, Strain/Indicator: TA98, Metabolic Activation: HAMSTER, LIVER, S-9, AROCLOR 1254 (10%), Method: PREINCUBATION): active; positive | mutagenic call [1]: inactive; negative | mutagenic call (Test System: AMES SALMONELLA TYPHIMURIUM, Strain/Indicator: TA98, Metabolic Activation: RAT, LIVER, S-9, AROCLOR 1254 (10%), Method: PREINCUBATION): active; positive | mutagenic call (Test System: AMES SALMONELLA TYPHIMURIUM, Strain/Indicator: TA98, Metabolic Activation: S-9, Method: PREINCUBATION): inactive; negative | mutagenic call (Test System: AMES SALMONELLA TYPHIMURIUM, Strain/Indicator: TA100, Metabolic Activation: HAMSTER, LIVER, S-9, AROCLOR 1254 (10%), Method: PREINCUBATION): active; positive | mutagenic call (Test System: AMES SALMONELLA TYPHIMURIUM, Strain/Indicator: TA100, Metabolic Activation: MOUSE, LIVER, S-9, AROCLOR 1254, Method: STANDARD PLATE): active; positive | mutagenic call (Test System: AMES SALMONELLA TYPHIMURIUM, Strain/Indicator: TA100, Metabolic Activation: NONE, Method: PREINCUBATION): inactive; negative | mutagenic call (Test System: AMES SALMONELLA TYPHIMURIUM, Strain/Indicator: TA100, Metabolic Activation: RAT, LIVER, S-9, AROCLOR 1254 (10%), Method: PREINCUBATION): active; positive | mutagenic call (Test System: AMES SALMONELLA TYPHIMURIUM, Strain/Indicator: TA100, Metabolic Activation: RAT, LIVER, S-9, AROCLOR 1254, Method: STANDARD PLATE): active; positive | mutagenic call (Test System: AMES SALMONELLA TYPHIMURIUM, Strain/Indicator: TA100, Metabolic Activation: S-9, Method: PREINCUBATION): active; positive | mutagenic call (Test System: AMES SALMONELLA TYPHIMURIUM, Strain/Indicator: TA1535, Metabolic Activation: HAMSTER, LIVER, S-9, AROCLOR 1254 (10%), Method: PREINCUBATION): inactive; negative | mutagenic call (Test System: AMES SALMONELLA TYPHIMURIUM, Strain/Indicator: TA1535, Metabolic Activation: NONE, Method: PREINCUBATION): inactive; negative | mutagenic call (Test System: AMES SALMONELLA TYPHIMURIUM, Strain/Indicator: TA1535, Metabolic Activation: RAT, LIVER, S-9, AROCLOR 1254 (10%), Method: PREINCUBATION): inactive; negative | mutagenic call (Test System: AMES SALMONELLA TYPHIMURIUM, Strain/Indicator: TA1537, Metabolic Activation: HAMSTER, LIVER, S-9, AROCLOR 1254 (10%), Method: PREINCUBATION): inactive; negative | mutagenic call (Test System: AMES SALMONELLA TYPHIMURIUM, Strain/Indicator: TA1537, Metabolic Activation: RAT, LIVER, S-9, AROCLOR 1254 (10%), Method: PREINCUBATION): inactive; negative | mutagenic call (Test System: UDS RODENT HEPATOCYTES, Strain/Indicator: THY INCORP (NON-S-PHASE), Metabolic Activation: NONE, Method: AUTORADIOGRAPHY): active; positive
